Assays:
Gal4-RORγ-LBD = target: T1, Gal4-RORγ-LBD (Homo sapiens, UniProt P51449); assay: Gal4-RORγ Luciferase Reporter Assay in HEK-293T Cells; type: cell-based; settings: HEK-293 cells
T1 construct: expressed in transfected cells; host or cells: HEK-293 cells (pcDNA3.1neo plasmid)
T1 sequence (P51449 269-508 limits assumed): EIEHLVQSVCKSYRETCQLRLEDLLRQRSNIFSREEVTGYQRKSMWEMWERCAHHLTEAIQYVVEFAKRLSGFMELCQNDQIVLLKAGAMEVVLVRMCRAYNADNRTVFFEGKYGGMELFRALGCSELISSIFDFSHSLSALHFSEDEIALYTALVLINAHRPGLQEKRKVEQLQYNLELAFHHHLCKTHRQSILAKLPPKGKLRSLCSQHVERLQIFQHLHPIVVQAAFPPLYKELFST
Summary of the method: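 In transfected HEK-293 cells (Gal4-RORγ-LBD, Gal4-luciferase), test agents with 2 μM ursolic acid were incubated overnight at 37 °C before luminescent detection. Values are relative to the ursolic-acid-free, compound-free signal (100).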

RORγ-LBD = target: T2, RORγ-LBD (Homo sapiens, UniProt P51449); assay: RORγ-Ligand Binding Domain (LBD) TR-FRET Assay; type: biochemical;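 as to TR-FRET Assay Max Response: 665/615 nm ratio relative to signal without ursolic acid or compound set at 100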
T2 construct: made in house; host or cells: SF9 cells (baculovirus)
T2 sequence (P51449 269-508 limits assumed): T1 sequence (P51449 269-508 limits assumed)
Summary of the method: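 Lysate from SF9 cells expressing His-RORγ-LBD is diluted to about 3 nM final in 50 mM Tris pH 7.0 assay buffer. A biotin-tagged SRC1 LXXLL peptide goes in at 200 nM final, plus ursolic acid at 2 μM final. Test compounds carry 1% DMSO final; signal read by TR-FRET.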

[1] = luciferase reporter, with 2 μM ursolic acid

| SMILES | EC50 (Gal4-RORγ-LBD; 2 μM ursolic acid) [nM] | EC50 (RORγ-LBD) [nM] | EC50 (Gal4-RORγ-LBD; [1]) [nM] | Gal4-RORγ Assay Max Response (Gal4-RORγ-LBD; 2 μM ursolic acid) | TR-FRET Assay Max Response (RORγ-LBD) | Gal4-RORγ Assay Max Response (Gal4-RORγ-LBD; [1]) |
| --- | --- | --- | --- | --- | --- | --- |
| COc1cc(Cl)cc(-c2ccc3c(c2)N(S(=O)(=O)c2cccc(C(F)(F)F)c2)C[C@H](CCC(=O)O)O3)c1 [Compound 2AO, (S)-3-(6-(3-chloro-5-methoxyphenyl)-4-((3-(trifluoromethyl)phenyl)-sulfonyl)-3,4-dihydro-2H-benzo[b][1,4]oxazin-2-yl)propanoic acid] |  | < 500 | < 500 |  | **** (The symbol “****” indicates a value greater than 200) | *** (The symbol “***” indicates a value in the range of greater than 150 to 200) |
| O=S(=O)(c1cccc(C(F)(F)F)c1)N1C[C@H](CCCO)Oc2ccc(-c3ccc(F)cc3F)cc21 [Compound 34A, (S)-3-(6-(2,4-difluorophenyl)-4-((3-(trifluoromethyl)phenyl)-sulfonyl)-3,4-dihydro-2H-benzo[b][1,4]oxazin-2-yl)propan-1-ol] |  | < 500 | < 500 |  | **** (The symbol “****” indicates a value greater than 200) | * (The symbol “*” indicates a value in the range of 25 to 90) |
| C[C@@H](C[C@H]1CN(S(=O)(=O)c2cccc(C(F)(F)F)c2)c2cc(-c3cc(F)cc(F)c3Cl)ccc2O1)C(=O)O [Compound 46C, (S)-3-((S)-6-(2-chloro-3,5-difluorophenyl)-4-((3-(trifluoro-methyl)phenyl)sulfonyl)-3,4-dihydro-2H-benzo[b][1,4]oxazin-2-yl)-2-methylpropanoic acid] |  | < 500 | < 500 |  | *** (The symbol “***” indicates a value in the range of greater than 150 to 200) | ** (The symbol “**” indicates a value in the range of greater than 90 to 150) |
| O=C(NC[C@H]1CN(S(=O)(=O)c2cccc(C(F)(F)F)c2)c2cc(-c3cc(F)ccc3F)ccc2O1)C1CCC1 [Compound 30BB, (S)-N-((6-(2,5-difluorophenyl)-4-((3-(trifluoromethyl)phenyl)-sulfonyl)-3,4-dihydro-2H-benzo-[b][1,4]oxazin-2-yl)methyl)-cyclobutanecarboxamide] |  | < 500 | < 500 |  | *** (The symbol “***” indicates a value in the range of greater than 150 to 200) | * (The symbol “*” indicates a value in the range of 25 to 90) |
| COc1cc(S(=O)(=O)N2C[C@H](CCNC(=O)C(C)(C)O)Oc3ccc(-c4cc(F)ccc4F)cc32)ccc1F [Compound 30M, (S)-N-(2-(6-(2,5-difluorophenyl)-4-((4-fluoro-3-methoxyphenyl)-sulfonyl)-3,4-dihydro-2H-benzo[b][1,4]oxazin-2-yl)ethyl)-2-hydroxy-2-methylpropanamide] |  | < 500 | < 500 |  | *** (The symbol “***” indicates a value in the range of greater than 150 to 200) | * (The symbol “*” indicates a value in the range of 25 to 90) |
| NS(=O)(=O)CCC(=O)NC[C@H]1CN(S(=O)(=O)c2cccc(C(F)(F)F)c2)c2cc(-c3cc(F)cc(OC(F)F)c3)ccc2O1 [Compound 30DA, (S)-N-((6-(3-(difluoromethoxy)-5-fluorophenyl)-4-((3-(trifluoro-methyl)phenyl)sulfonyl)-3,4-dihydro-2H-benzo[b][1,4]-oxazin-2-yl)methyl)-3-sulfamoylpropanamide] | 500 to 5000 | < 500 |  | * (The symbol “*” indicates a value in the range of 25 to 90) | *** (The symbol “***” indicates a value in the range of greater than 150 to 200) |  |
| CC(C)c1cccc(S(=O)(=O)N2C[C@H](CCc3n[nH]c(=O)o3)Oc3ccc(-c4cccc(N(C)C)n4)cc32)c1 [Compound 28F, (S)-5-(2-(6-(6-(dimethylamino)-pyridin-2-yl)-4-((3-isopropyl-phenyl)sulfonyl)-3,4-dihydro-2H-benzo[b][1,4]oxazin-2-yl)ethyl)-1,3,4-oxadiazol-2(3H)-one] |  | < 500 | < 500 |  | **** (The symbol “****” indicates a value greater than 200) | ** (The symbol “**” indicates a value in the range of greater than 90 to 150) |
| COc1cccc(-c2ccc3c(c2)N(S(=O)(=O)c2cccc(C(F)(F)F)c2)C[C@H](CCC(=O)N2CCS(=O)(=O)CC2)O3)c1 [Compound 23M, (S)-1-(1,1-dioxidothio-morpholino)-3-(6-(3-methoxyphenyl)-4-((3-(trifluoromethyl)phenyl)sulfonyl)-3,4-dihydro-2H-benzo[b][1,4]-oxazin-2-yl)propan-1-one] |  | < 500 | < 500 |  | **** (The symbol “****” indicates a value greater than 200) | *** (The symbol “***” indicates a value in the range of greater than 150 to 200) |

The next lines start with results.

| EC50 (Gal4-RORγ-LBD; 2 μM ursolic acid) [nM] | EC50 (RORγ-LBD) [nM] | EC50 (Gal4-RORγ-LBD; [1]) [nM] | SMILES | Gal4-RORγ Assay Max Response (Gal4-RORγ-LBD; 2 μM ursolic acid) | TR-FRET Assay Max Response (RORγ-LBD) | Gal4-RORγ Assay Max Response (Gal4-RORγ-LBD; [1]) |
| --- | --- | --- | --- | --- | --- | --- |
| < 500 | < 500 |  | O=C(O)[C@H]1C[C@H](C[C@H]2CN(S(=O)(=O)c3cccc(C(F)(F)F)c3)c3cc(-c4cc(F)ccc4F)ccc3O2)C1 [Compound 60A, (1S,3r)-3-(((S)-6-(2,5-difluoro-phenyl)-4-((3-(trifluoromethyl)-phenyl)sulfonyl)-3,4-dihydro-2H-benzo[b][1,4]oxazin-2-yl)methyl)cyclobutane-1-carboxylic acid] | ** (The symbol “**” indicates a value in the range of greater than 90 to 150) | *** (The symbol “***” indicates a value in the range of greater than 150 to 200) |  |
|  | < 500 | < 500 | O=C(O)CC[C@H]1CN(S(=O)(=O)c2cccc(C(F)(F)F)c2)c2cc(-c3cccc(F)c3Cl)ccc2O1 [Compound 2AH, (S)-3-(6-(2-chloro-3-fluoro-phenyl)-4-((3-(trifluoromethyl)-phenyl)sulfonyl)-3,4-dihydro-2H-benzo[b][1,4]oxazin-2-yl)propanoic acid] |  | **** (The symbol “****” indicates a value greater than 200) | *** (The symbol “***” indicates a value in the range of greater than 150 to 200) |
| < 500 | < 500 |  | CC(C)(C[C@H]1CN(S(=O)(=O)c2cccc(C(F)(F)F)c2)c2cc(-c3ccccc3OC(F)(F)F)ccc2O1)C(=O)O [Compound 32Z, (S)-2,2-dimethyl-3-(6-(2-(trifluoromethoxy)phenyl)-4-((3-(trifluoromethyl)phenyl)sulfonyl)-3,4-dihydro-2H-benzo[b][1,4]-oxazin-2-yl)propanoic acid] | ** (The symbol “**” indicates a value in the range of greater than 90 to 150) | *** (The symbol “***” indicates a value in the range of greater than 150 to 200) |  |
| < 500 | < 500 |  | CC(=O)c1ccc(F)c(-c2ccc3c(c2)N(S(=O)(=O)c2cccc(C(F)(F)F)c2)C[C@H](CC(C)(C)C(=O)O)O3)c1 [Compound 32AE, (S)-3-(6-(5-acetyl-2-fluoro-phenyl)-4-((3-(trifluoromethyl)-phenyl)sulfonyl)-3,4-dihydro-2H-benzo[b][1,4]oxazin-2-yl)-2,2-dimethylpropanoic acid] | * (The symbol “*” indicates a value in the range of 25 to 90) | *** (The symbol “***” indicates a value in the range of greater than 150 to 200) |  |
|  | < 500 | < 500 | CC(=O)NC[C@H]1CN(S(=O)(=O)c2cccc(C(F)(F)F)c2)c2cc(-c3cc(F)ccc3F)ccc2O1 [Compound 30BD, (S)-N-((6-(2,5-difluorophenyl)-4-((3-(trifluoromethyl)phenyl)-sulfonyl)-3,4-dihydro-2H-benzo[b][1,4]oxazin-2-yl)methyl)acetamide] |  | **** (The symbol “****” indicates a value greater than 200) | ** (The symbol “**” indicates a value in the range of greater than 90 to 150) |
|  | < 500 | < 500 | O=C(O)CC[C@H]1CN(S(=O)(=O)c2cccc(C(F)(F)F)c2)c2cc(-c3cccc(Cl)c3F)ccc2O1 [Compound 2R, (S)-3-(6-(3-chloro-2-fluorophenyl)-4-((3-(trifluoromethyl)phenyl)-sulfonyl)-3,4-dihydro-2H-benzo[b][1,4]oxazin-2-yl)propanoic acid] |  | **** (The symbol “****” indicates a value greater than 200) | *** (The symbol “***” indicates a value in the range of greater than 150 to 200) |
| < 500 | < 500 |  | CC(C)(C[C@H]1CN(S(=O)(=O)c2cccc(C(F)(F)F)c2)c2cc(-c3cccc(C(F)F)n3)ccc2O1)C(=O)O [Compound 32AK, (S)-3-(6-(6-(difluoromethyl)-pyridin-2-yl)-4-((3-(trifluoro-methyl)phenyl)sulfonyl)-3,4-dihydro-2H-benzo[b][1,4]oxazin-2-yl)-2,2-dimethylpropanoic acid] | * (The symbol “*” indicates a value in the range of 25 to 90) | ** (The symbol “**” indicates a value in the range of greater than 90 to 150) |  |
